According to patent US12187742B2 (XRAD Therapeutics, Inc., priority 2018, dated 2025):

molecular target: ATM (Homo sapiens (Human), UniProt Q13315); experiment: ATM in Cell Western Assay (pKAP1 in etoposide-treated MCF-7 cells); type: cell-based; conditions: MCF-7 cells, etoposide 100 μM, 1 hr, pKAP1 readout
Procedure: Assay of Compounds ATM and DNA-PK Inhibition
ATM in Cell Western Assay:
Next day, add corresponding concentration of compounds using pin tool (Echo 550), the final top concentration is 1 μM, 3-fold series dilution, total 10 doses. Then add etoposide (Sigma, #E1383) to a final concentration of 100 μM. Incubate at 37° C. for 1 hr. Fix cells by adding 25 μL of fixing solution (8% paraformaldehyde) for 20 minutes at ambient temperature. Permeabilize cells for 5 washes with 1×PBS (phosphate buffered saline) containing 0.1% Triton X-100; each wash is for 5 minutes. […] The next day, wash the plate 5 times with 1×PBST (1×PBS containing 0.1% Tween-20). […] Wash the cells for 5 times with 1×PBST (1×PBS containing 0.1% Tween-20) at ambient temperature, using gentle shaking in the dark. After the last wash
remove wash solution, turn plate upside down onto a thin paper towel and centrifuge at 1000 rpm for 1 min to absorb all wash buffer. Clean the bottom of plate with moist lint free paper. Scan plate immediately using ODYSSEY CLx (LI-COR) for the best results.

Sequence of ATM (Q13315 whole entry): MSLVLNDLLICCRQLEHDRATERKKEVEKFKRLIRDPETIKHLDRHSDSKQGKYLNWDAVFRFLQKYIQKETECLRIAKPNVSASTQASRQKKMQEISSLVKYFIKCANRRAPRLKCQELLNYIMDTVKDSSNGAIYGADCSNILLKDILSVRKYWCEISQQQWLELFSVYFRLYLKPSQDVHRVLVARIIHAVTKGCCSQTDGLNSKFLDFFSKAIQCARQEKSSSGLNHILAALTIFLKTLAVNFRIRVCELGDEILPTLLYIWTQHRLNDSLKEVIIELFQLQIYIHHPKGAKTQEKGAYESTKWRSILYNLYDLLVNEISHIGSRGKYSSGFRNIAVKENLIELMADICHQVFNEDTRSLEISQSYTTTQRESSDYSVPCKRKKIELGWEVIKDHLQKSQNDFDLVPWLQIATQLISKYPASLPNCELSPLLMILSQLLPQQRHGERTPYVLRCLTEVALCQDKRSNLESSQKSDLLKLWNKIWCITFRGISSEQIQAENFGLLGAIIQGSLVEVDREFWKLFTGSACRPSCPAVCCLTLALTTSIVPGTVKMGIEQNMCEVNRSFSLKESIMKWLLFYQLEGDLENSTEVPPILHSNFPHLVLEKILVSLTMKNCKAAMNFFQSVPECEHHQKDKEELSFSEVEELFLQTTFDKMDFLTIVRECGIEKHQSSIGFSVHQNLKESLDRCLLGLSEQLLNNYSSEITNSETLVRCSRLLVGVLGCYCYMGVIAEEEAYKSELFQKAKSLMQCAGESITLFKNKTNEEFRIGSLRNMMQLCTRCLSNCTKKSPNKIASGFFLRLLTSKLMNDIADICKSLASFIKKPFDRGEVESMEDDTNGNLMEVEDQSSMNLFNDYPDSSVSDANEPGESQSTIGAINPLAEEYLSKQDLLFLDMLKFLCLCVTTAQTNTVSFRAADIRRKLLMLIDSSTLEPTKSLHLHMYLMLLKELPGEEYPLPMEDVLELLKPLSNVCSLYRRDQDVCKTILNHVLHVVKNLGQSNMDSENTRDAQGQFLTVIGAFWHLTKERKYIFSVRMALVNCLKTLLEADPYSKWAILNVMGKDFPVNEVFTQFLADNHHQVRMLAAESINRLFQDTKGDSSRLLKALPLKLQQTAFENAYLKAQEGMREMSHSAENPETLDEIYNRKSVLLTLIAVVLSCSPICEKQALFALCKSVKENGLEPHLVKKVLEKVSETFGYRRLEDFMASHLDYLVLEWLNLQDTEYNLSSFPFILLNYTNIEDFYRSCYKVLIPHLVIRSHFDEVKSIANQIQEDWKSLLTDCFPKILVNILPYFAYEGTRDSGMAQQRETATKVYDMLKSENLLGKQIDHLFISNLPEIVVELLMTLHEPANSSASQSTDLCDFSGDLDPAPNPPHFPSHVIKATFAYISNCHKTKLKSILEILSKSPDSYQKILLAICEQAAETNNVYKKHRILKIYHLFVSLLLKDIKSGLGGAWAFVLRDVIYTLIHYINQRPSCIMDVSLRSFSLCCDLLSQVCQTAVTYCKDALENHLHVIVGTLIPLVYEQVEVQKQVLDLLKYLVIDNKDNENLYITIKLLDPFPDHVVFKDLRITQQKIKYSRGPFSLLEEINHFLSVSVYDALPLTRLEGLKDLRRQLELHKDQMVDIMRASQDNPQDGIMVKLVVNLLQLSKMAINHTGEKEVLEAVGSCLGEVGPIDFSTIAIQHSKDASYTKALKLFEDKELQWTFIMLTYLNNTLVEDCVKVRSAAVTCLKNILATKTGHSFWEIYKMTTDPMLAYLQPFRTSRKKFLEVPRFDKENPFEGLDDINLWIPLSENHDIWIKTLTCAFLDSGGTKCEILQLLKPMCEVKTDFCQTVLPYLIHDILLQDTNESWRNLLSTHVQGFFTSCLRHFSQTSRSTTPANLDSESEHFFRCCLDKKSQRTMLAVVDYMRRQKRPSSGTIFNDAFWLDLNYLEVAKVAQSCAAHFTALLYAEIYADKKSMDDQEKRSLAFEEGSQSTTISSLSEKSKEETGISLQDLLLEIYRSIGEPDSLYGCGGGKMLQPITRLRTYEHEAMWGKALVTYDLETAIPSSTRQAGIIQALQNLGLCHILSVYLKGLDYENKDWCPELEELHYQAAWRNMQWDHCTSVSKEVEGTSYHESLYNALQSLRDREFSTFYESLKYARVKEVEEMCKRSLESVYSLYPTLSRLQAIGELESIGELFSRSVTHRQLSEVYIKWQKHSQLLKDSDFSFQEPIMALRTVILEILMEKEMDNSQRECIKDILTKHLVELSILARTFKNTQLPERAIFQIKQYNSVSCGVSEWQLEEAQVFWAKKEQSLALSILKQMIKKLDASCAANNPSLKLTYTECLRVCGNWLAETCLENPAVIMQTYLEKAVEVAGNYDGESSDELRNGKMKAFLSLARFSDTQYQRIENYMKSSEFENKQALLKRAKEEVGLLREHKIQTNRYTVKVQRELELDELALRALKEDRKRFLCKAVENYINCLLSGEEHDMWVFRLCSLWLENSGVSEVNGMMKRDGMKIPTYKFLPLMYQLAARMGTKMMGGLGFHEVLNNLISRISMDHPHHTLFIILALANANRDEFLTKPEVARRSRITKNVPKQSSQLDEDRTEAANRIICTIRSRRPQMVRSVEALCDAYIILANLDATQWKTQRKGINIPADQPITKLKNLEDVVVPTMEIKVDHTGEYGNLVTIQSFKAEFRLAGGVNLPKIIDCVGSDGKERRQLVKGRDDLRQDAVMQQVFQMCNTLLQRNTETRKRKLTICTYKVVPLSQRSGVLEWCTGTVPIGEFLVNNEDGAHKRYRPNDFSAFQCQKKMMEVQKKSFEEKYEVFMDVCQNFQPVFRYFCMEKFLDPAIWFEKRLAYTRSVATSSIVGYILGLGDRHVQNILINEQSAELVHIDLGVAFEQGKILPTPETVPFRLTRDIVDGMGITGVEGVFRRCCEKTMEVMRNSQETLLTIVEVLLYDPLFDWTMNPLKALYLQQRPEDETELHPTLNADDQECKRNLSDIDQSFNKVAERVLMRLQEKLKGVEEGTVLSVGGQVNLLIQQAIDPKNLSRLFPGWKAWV

Compound	IC50 [µM]
COc1ncc(-c2ccc3ncc4c(c3c2)C2(CC2)C(=O)N4C)cc1CS(=O)(=O)c1ccc(C)nc1 [Example 209, 8′-(6-Methoxy-5-(((6-methylpyridin-3-yl)sulfonyl)methyl)pyridin-3-yl)-3′-methylspiro[cyclopropane-1,1′-pyrrolo[2,3-c]quinolin]-2′(3′-H)-one]	> 0.1
Cc1ccc(S(=O)(=O)Nc2cc(-c3ccc4ncc5c(c4c3)C3(CCC3)C(=O)N5C)cnc2OCCCN2C(C)CCCC2C)cn1 (stereo not shown) [Example 210, N-(2-(3-(2,6-Dimethylpiperidin-1-yl)propoxy)-5-(3′-methyl-2′-oxo-2′,3′-dihydrospiro[cyclobutane-1,1′-pyrrolo[2,3-c]quinolin]-8′-yl)pyridin-3-yl)-6-methylpyridine-3-sulfonamide]	0.001 to 0.1
Cc1ccc(S(=O)(=O)Nc2cc(-c3ccc4ncc5c(c4c3)C3(CCC3)C(=O)N5C)cnc2OCCCN2C(C)(C)CCCC2(C)C)cn1 [Example 211, 6-Methyl-N-(5-(3′-methyl-2′-oxo-2′,3′-dihydrospiro[cyclobulane-1,1′-pyrrolo[2,3-c]quinolin]-8′-yl)-2-(3-(2,2,6,6-tetramethylpiperidin-1-yl)propoxy)pyridin-3-yl)pyridine-3-sulfonamide]	> 0.1
[2H]C([2H])(COc1ncc(-c2ccc3ncc4c(c3c2)C2(CCC2)C(=O)N4C)cc1NS(=O)(=O)c1ccc(C)nc1)CN1CCCCC1 [Example 219, 6-Methyl-N-(5-(3′-methyl-2′-oxo-2′,3′-dihydrospiro[cyclobulane-1,1′-pyrrolo[2,3-c]quinolin]-8′-yl)-2-(3-(piperidin-1-yl)propoxy-2,2-d2)pyridin-3-yl)pyridine-3-sulfonamide]	> 0.1
CN(CCCOc1ncc(-c2ccc3ncc4c(c3c2)C2(CCC2)C(=O)N4C)cc1NS(C)(=O)=O)CC(F)(F)F [Example 231]	0.001 to 0.1
CN(C)CCCOc1ncc(-c2ccc3ncc4c(c3c2)C2(CCC2)C(=O)N4C)cc1S(=O)(=O)N(C)C [Example 234, 2-(3-(Dimethylamino)propoxy)-N,N-dimethyl-5-(3′-methyl-2′-oxo-2′,3′-dihydrospiro[cyclobutane-1,1′-pyrrolo[2,3-c]quinolin]-8′-yl)pyridine-3-sulfonamide]	0.001 to 0.1
CN1C(=O)C2(CCC2)c2c1cnc1ccc(-c3cnc(OCCCO)c(NS(C)(=O)=O)c3)cc21 [Example 254, N-(2-(3-Hydroxypropoxy)-5-(3′-methyl-2′-oxo-2′,3′-dihydrospiro[cyclobutane-1,1′-pyrrolo[2,3-c]quinolin]-8′-yl)pyridin-3-yl)methanesulfonamide]	> 0.1
CN(C)CCCOc1ncc(-c2ccc3ncc4c(c3c2)C2(CCC2)C(=O)N4C)cc1S(N)(=O)=O [Example 255, 2-(3-(Dimethylamino)propoxy)-5-(3′-methyl-2′-oxo-2′,3′-dihydrospiro[cyclobutane-1,1′-pyrrolo[2,3-c]quinolin]-8′-yl)pyridine-3-sulfonamide]	0.001 to 0.1
CN1C(=O)C2(CCC2)c2c1cnc1ccc(-c3cnc(OCC(F)(F)CN4CCCCC4)c(NS(C)(=O)=O)c3)cc21 [Example 256, N-(2-(2,2-Difluoro-3-(piperidin-1-yl)propoxy)-5-(3′-methyl-2′-oxo-2′,3′-dihydrospiro[cyclobutane-1,1′-pyrrolo[2,3-c]quinolin]-8′-yl)pyridin-3-yl)methanesulfonamide]	> 0.1
CN(C)CCCOc1ncc(-c2ccc3ncc4c(c3c2)C2(CC(=O)C2)C(=O)N4C)cc1NS(C)(=O)=O [Example 258, N-(2-(3-(Dimethylamino)propoxy)-5-(3′-methyl-2′,3′-dioxo-2′,3′-dihydrospiro [cyclobutane-1,1′-pyrrolo[2,3-c]quinolin]-8′-yl)pyridin-3-yl)methanesulfonamide]	0.001 to 0.1
CN(C)CCCNc1ncc(-c2ccc3ncc4c(c3c2)C2(CCC2)C(=O)N4C)cc1NS(C)(=O)=O [Example 259, N-(2-((3-(Dimethylamino)propyl)amino)-5-(3′-methyl-2′-oxo-2′,3′-dihydrospiro[cyclobutane-1,1′-pyrrolo[2,3-c]quinolin]-8′-yl)pyridin-3-yl)methanesulfonamide]	0.001 to 0.1
CC1CCN(c2ncc(-c3ccc4ncc5c(c4c3)C3(CCC3)C(=O)N5C)cc2NS(C)(=O)=O)CC1 [Example 260, N-(5-(3′-Methyl-2′-oxo-2′,3′-dihydrospiro[cyclobutane-1,1′-pyrrolo[2,3-c]quinolin]-8′-yl)-2-(4-methylpiperidin-l-yl)Pyridin-3-yl)methanesulfonamide]	> 0.1
CN(C)CCCOc1ncc(-c2ccc3ncc4c(c3c2)C2(CCC2)C(=O)N4C)cc1NS(=O)(=O)CCN1C(=O)c2ccccc2C1=O [Example 261, N-(2-(3-(dimethylamino)propoxy)-5-(3′-methyl-2′-oxo-2′,3′-dihydrospiro[cyclobutane-1,1′-pyrrolo[2,3-c]quinolin]-8′-yl)pyridin-3-yl)-2-(1,3-dioxoisoindolin-2-yl)ethane-1-sulfonamide]	0.001 to 0.1
CN(C)CCCOc1ncc(-c2ccc3ncc4c(c3c2)C2(CCC2)C(=O)N4C)nc1NS(C)(=O)=O [Example 263, N-(3-(3-(Dimethylamino)propoxy)-6-(3′-methyl-2′-oxo-2′,3′-dihydrospiro [cyclobutane-1,1′-pyrrolo[2,3-c]quinolin]-8′-yl)pyrazin-2-yl) methanesulfonamide]	0.001 to 0.1
CN(C)CCOCc1ncc(-c2ccc3ncc4c(c3c2)C2(CCC2)C(=O)N4C)cc1NS(C)(=O)=O [Example 265, N-(2-((2-(Dimethylamino)ethoxy)methyl)-5-(3′-methyl-2′-oxo-2′,3′-dihydrospiro [cyclobutane-1,1′-pyrrolo[2,3-c]quinolin]-8′-yl)pyridin-3-yl)methanesulfonamide]	> 0.1
CNS(=O)(=O)c1cc(-c2ccc3ncc4c(c3c2)C2(CCC2)C(=O)N4C)cnc1OCCCN(C)C [Example 267, 2-(3-(Dimethylamino)propoxy)-N-methyl-5-(3′-methyl-2′-oxo-2′,3′-dihydrospiro[cyclobutane-1,1′-pyrrolo[2,3-c]quinolin]-8′-yl) pyridine-3-sulfonamide]	0.001 to 0.1
CN1C(=O)C2(CCC2)c2c1cnc1ccc(-c3cnc(CCCCN4CCCCC4)c(NS(C)(=O)=O)c3)cc21 [Example 269, N-(5-(3′-Methyl-2′-oxo-2′,3′-dihydrospiro[cyclobutane-1,1′-pyrrolo[2,3-c]quinolin]-8′-yl)-2-(4-(piperidin-1-yl)butyl)pyridin-3-yl)methanesulfonamide]	0.001 to 0.1
CN(C)c1ccc(-c2ncc(-c3ccc4ncc5c(c4c3)C3(CCC3)C(=O)N5C)cc2NS(C)(=O)=O)cn1 [Example 271, N-(6′-(Dimethylamino)-5-(3′-methyl-2′-oxo-2′,3′-dihydrospiro[cyclobutane-1,1′-pyrrolo[2,3-c]quinolin]-8′-yl)-[2,3′-bipyridin]-3-yl)methanesulfonamide]	0.001 to 0.1
CN(C)CCCOc1ncc(-c2ccc3ncc4c(c3c2)C2(CCC2)C(=O)N4C)cc1NS(=O)(=O)CS(C)(=O)=O [Example 274, N-(2-(3-(Dimethylamino)propoxy)-5-(3′-methyl-2′-oxo-2′,3′-dihydrospiro[cyclobutane-1,1′-pyrrolo[2,3-c]quinolin]-8′-yl)pyridin-3-yl)-1-(methylsulfonyl)methanesulfonamide]	0.001 to 0.1
CCc1ncc(S(=O)(=O)Nc2cc(-c3ccc4ncc5c(c4c3)C3(CCC3)C(=O)N5C)cnc2OCCNC)s1 [Example 275, 2-Ethyl-N-(5-(3′-methyl-2′-oxo-2′,3′-dihydrospiro[cyclobutane-1,1′-pyrrolo[2,3-c]quinolin]-8′-yl)-2-(2-(methylamino)ethoxy)pyridin-3-yl)thiazole-5-sulfonamide]	0.001 to 0.1
CN1CC=C(c2ncc(-c3ccc4ncc5c(c4c3)C3(CCC3)C(=O)N5C)cc2NS(C)(=O)=O)CC1 [Example 276, N-(1′-Methyl-5-(3′-methyl-2-oxo-2′,3′-dihydrospiro[cyclobutane-1,1′-pyrrolo[2,3-c]quinolin]-8′-yl)-1′,2′,3′,6′-tetrahydro-[2,4′-bipyridin]-3-yl)methanesulfonamide]	0.001 to 0.1
CN1C(=O)C2(CCC2)c2c1cnc1ccc(-c3cnc(OCC(CO)N4CCCCC4)c(NS(C)(=O)=O)c3)cc21 (stereo not shown) [Example 284, N-(2-(3-Hydroxy-2-(piperidin-1-yl)propoxy)-5-(3′-methyl-2′-oxo-2′,3′-dihydrospiro[cyclobutane-1,1′-pyrrolo[2,3-c]quinolin]-8′-yl)pyridin-3-yl)methanesulfonamide]	> 0.1
CC(CCOc1ncc(-c2ccc3ncc4c(c3c2)C2(CCC2)C(=O)N4C)cc1NS(C)(=O)=O)N(C)C (stereo not shown) [Example 292, N-(2-(3-(Dimethylamino)butoxy)-5-(3′-methyl-2′-oxo-2′,3′-dihydrospiro [cyclobutane-1,1′-pyrrolo[2,3-c]quinolin]-8′-yl)pyridin-3-yl)methanesulfonamide]	0.001 to 0.1
CN1C(=O)C2(CCC2)c2c1cnc1ccc(-c3cnc(OCC(CO)N(C)C)c(NS(C)(=O)=O)c3)cc21 (stereo not shown) [Example 296, N-(2-(2-(dimethylamino)-3-hydroxypropoxy)-5-(3′-methyl-2′-oxo-2′,3′-dihydrospiro[cyclobutane-1,1′-pyrrolo[2,3-c]quinolin]-8′-yl)pyridin-3-yl)methanesulfonamide]	> 0.1
CN1C(=O)C2(CCC2)c2c1cnc1ccc(-c3cnc(OCCCN4CCCC(F)(F)C4)c(NS(C)(=O)=O)c3)cc21 [Example 298, N-(2-(3-(3,3-Difluoropiperidin-1-yl)propoxy)-5-(3′-methyl-2′-oxo-2′,3′-dihydrospiro[cyclobutane-1,1′-pyrrolo[2,3-c]quinolin]-8′-yl)pyridin-3-yl)methanesulfonamide]	> 0.1
